What was measured:
[1] = tested on: control cell lines (HACAT, HEK293T, CRL-7250, NIH-3T3); assay: qHTS cell viability, control cell lines as a group (mean AUC, Control.avg); type: cell-based; conditions: mean AUC of control cell lines
[2] = tested on: MKL-2 cells (VP-MCC); assay: qHTS cell viability (CellTiter-Glo, 72 h; primary and follow-up small molecule screen); type: cell-based, human
[3] = tested on: MCC26 cells (VN-MCC); assay: as above; type: cell-based, human
[4] = tested on: VP-MCC cell lines (WAGA, MKL-1, MKL-2); assay: qHTS cell viability, VP-MCC cell lines as a group (mean AUC, VP.MCC.avg); type: cell-based, human; conditions: for VP-MCC_Avg_AUC: mean AUC of VP-MCC cell lines
[5] = tested on: WAGA cells (VP-MCC); assay: qHTS cell viability (CellTiter-Glo, 72 h; primary and follow-up small molecule screen); type: cell-based, human
[6] = tested on: UISO cells (VN-MCC); assay: as above; type: cell-based, human
[7] = tested on: MCC cell lines (WAGA, MKL-1, MKL-2, MCC13, MCC26, UISO); assay: qHTS cell viability, all six MCC cell lines as a group (mean AUC, MCC.avg); type: cell-based, human; conditions: mean AUC of six MCC cell lines
[8] = tested on: CRL-7250 cells; assay: qHTS cell viability (CellTiter-Glo, 72 h; primary screen), control cell line; type: cell-based
[9] = tested on: HACAT cells; assay: as above; type: cell-based, human
[10] = tested on: HEK293T cells; assay: as above; type: cell-based, human
[11] = tested on: MKL-1 cells (VP-MCC); assay: qHTS cell viability (CellTiter-Glo, 72 h; primary and follow-up small molecule screen); type: cell-based, human
[12] = tested on: VN-MCC cell lines (MCC13, MCC26, UISO); assay: qHTS cell viability, VN-MCC cell lines as a group (mean AUC, VN.MCC.avg); type: cell-based, human; conditions: for VN-MCC_Avg_AUC: mean AUC of VN-MCC cell lines
[13] = tested on: NIH-3T3 cells; assay: qHTS cell viability (CellTiter-Glo, 72 h; primary screen), control cell line; type: cell-based, mouse
[14] = tested on: MCC13 cells (VN-MCC); assay: qHTS cell viability (CellTiter-Glo, 72 h; primary and follow-up small molecule screen); type: cell-based, human
[15] = tested on: six MCC cell lines and four control cell lines; assay: qHTS cell viability, all 10 cell lines screened; type: cell-based
[16] = MIPE library, 11-point DRC, sheet S2E
[17] = MIPE library, Control AUC minus VP-MCC AUC (therapeutic window), sheet S2E
[18] = MIPE library, 11-point DRC, control cell line, sheet S2E
[19] = MIPE library, Control AUC minus VN-MCC AUC (therapeutic window), sheet S2E
[20] = MIPE library, Control AUC minus MCC AUC (therapeutic window), sheet S2E

With `O=C(CCN1CCC(c2ccccc2)C1)c1ccc2c(c1)OCCO2` (stereo not shown) [Proroxan] the Control_Avg_AUC ([1]; NPC library) was 461.46, the MKL2_AUC ([2]; NPC library, qHTS dose-response AUC, MKL2) was 379.094 and the “Area under the dose-response curve (AUC) MKL-2 Replicate 1” value ([2]; follow-up screen, MKL-2, replicate 1) was 423.0. The “Area under the dose-response curve (AUC) MKL-2 Replicate 2” value ([2]; follow-up screen, MKL-2, replicate 2) was 412.3, the “Area under the dose-response curve (AUC) MKL-2 Replicate 3” value ([2]; follow-up screen, MKL-2, replicate 3) was 429.1 and the MCC26_AUC ([3]; NPC library, qHTS dose-response AUC, MCC26) was 531.522. The “Area under the dose-response curve (AUC) MCC26 Replicate 1” value ([3]; follow-up screen, MCC26, replicate 1) was 461.4, the “Area under the dose-response curve (AUC) MCC26 Replicate 2” value ([3]; follow-up screen, MCC26, replicate 2) was 445.0 and the “Area under the dose-response curve (AUC) MCC26 Replicate 3” value ([3]; follow-up screen, MCC26, replicate 3) was 478.9. It also gave a VP-MCC_Avg_AUC ([4]; NPC library) of 394.094, a Control-VP-MCC ([4]; NPC library, therapeutic window: Control avg AUC minus VP-MCC avg AUC) of 67.3656 and a WAGA_AUC ([5]; NPC library, qHTS dose-response AUC, WAGA) of 401.693. The “Area under the dose-response curve (AUC) WAGA Replicate 1” value ([5]; follow-up screen, WAGA, replicate 1) was 471.3, the “Area under the dose-response curve (AUC) WAGA Replicate 2” value ([5]; follow-up screen, WAGA, replicate 2) was 460.1 and the “Area under the dose-response curve (AUC) WAGA Replicate 3” value ([5]; follow-up screen, WAGA, replicate 3) was 475.6. For the same molecule, the UISO_AUC ([6]; NPC library, qHTS dose-response AUC, UISO) was 463.935, the “Area under the dose-response curve (AUC) UISO Replicate 1” value ([6]; follow-up screen, UISO, replicate 1) was 440.8 and the “Area under the dose-response curve (AUC) UISO Replicate 2” value ([6]; follow-up screen, UISO, replicate 2) was 468.5. The “Area under the dose-response curve (AUC) UISO Replicate 3” value ([6]; follow-up screen, UISO, replicate 3) was 484.4, the MCC_Avg_AUC ([7]; NPC library) was 440.324 and the CRL7250_AUC ([8]; NPC library, qHTS dose-response AUC, CRL7250 control) was 469.26. The HACAT_AUC ([9]; NPC library, qHTS dose-response AUC, HACAT control) was 483.91, the HEK293T_AUC ([10]; NPC library, qHTS dose-response AUC, HEK293T control) was 432.979 and the MKL1_AUC ([11]; NPC library, qHTS dose-response AUC, MKL1) was 401.495. The “Area under the dose-response curve (AUC) MKL-1 Replicate 1” value ([11]; follow-up screen, MKL-1, replicate 1) was 420.7, the “Area under the dose-response curve (AUC) MKL-1 Replicate 2” value ([11]; follow-up screen, MKL-1, replicate 2) was 440.6 and the “Area under the dose-response curve (AUC) MKL-1 Replicate 3” value ([11]; follow-up screen, MKL-1, replicate 3) was 412.1. The VN-MCC_Avg_AUC ([12]; NPC library) was 486.553, the Control-VN-MCC ([12]; NPC library, therapeutic window: Control avg AUC minus VN-MCC avg AUC) was -25.0934 and the NIH3T3_AUC ([13]; NPC library, qHTS dose-response AUC, NIH3T3 control) was 459.69. For the same molecule, the MCC13_AUC ([14]; NPC library, qHTS dose-response AUC, MCC13) was 464.203, the “Area under the dose-response curve (AUC) MCC13 Replicate 1” value ([14]; follow-up screen, MCC13, replicate 1) was 493.7 and the “Area under the dose-response curve (AUC) MCC13 Replicate 2” value ([14]; follow-up screen, MCC13, replicate 2) was 500.7. For the same molecule, the “Area under the dose-response curve (AUC) MCC13 Replicate 3” value ([14]; follow-up screen, MCC13, replicate 3) was 474.6 and the Control-MCC ([15]; NPC library, therapeutic window: Control avg AUC minus MCC avg AUC) was 21.1361.
`O=C(CCCCCCC(=O)Nc1cccnc1)NO` [Pyroxamide] was tested, and the Control_Avg_AUC ([1]; MIPE library, sheet S2E) was 453.86, the MKL2_AUC [2, 16] was 371.322 and the MCC26_AUC [3, 16] was 466.672. It also gave a Control-VP-MCC [4, 17] of 81.0267, a VP-MCC_Avg_AUC ([4]; MIPE library, sheet S2E) of 372.833 and a WAGA_AUC [5, 16] of 346.535. For the same molecule, the UISO_AUC [6, 16] was 440.831, the MCC_Avg_AUC ([7]; MIPE library, sheet S2E) was 413.478 and the CRL7250_AUC [8, 18] was 459.817. It also gave an HACAT_AUC [9, 18] of 452.893, an HEK293T_AUC [10, 18] of 439.975 and an MKL1_AUC [11, 16] of 400.642. For the same molecule, the Control-VN-MCC [12, 19] was -0.2641, the VN-MCC_Avg_AUC ([12]; MIPE library, sheet S2E) was 454.124 and the NIH3T3_AUC [13, 18] was 462.753. The MCC13_AUC [14, 16] was 454.868 and the Control-MCC [15, 20] was 40.3813.
Molecule `CC(=O)SCC(Cc1ccccc1)C(=O)NCC(=O)OCc1ccccc1` (stereo not shown) [Racecadotril] has a Control_Avg_AUC ([1]; MIPE library, sheet S2E) of 471.369, an MKL2_AUC [2, 16] of 282.974 and an MKL2_AUC ([2]; area under the dose-response curve, MKL-2 cells, AUC<450 = reduced viability) of 385.069. It also gave an MCC26_AUC [3, 16] of 488.688, an MCC26_AUC ([3]; area under the dose-response curve, MCC26 cells, AUC<450 = reduced viability) of 492.456 and a Control-VP-MCC [4, 17] of 182.226. The VP-MCC_Avg_AUC ([4]; MIPE library, sheet S2E) was 289.144, the WAGA_AUC [5, 16] was 280.978 and the WAGA_AUC ([5]; area under the dose-response curve, WAGA cells, AUC<450 = reduced viability) was 389.872. For the same molecule, the UISO_AUC [6, 16] was 428.805, the UISO_AUC ([6]; area under the dose-response curve, UISO cells, AUC<450 = reduced viability) was 451.995 and the MCC_Avg_AUC ([7]; MIPE library, sheet S2E) was 374.417. The CRL7250_AUC [8, 18] was 474.01, the CRL7250_AUC ([8]; area under the dose-response curve, CRL7250 control cells, AUC<450 = reduced viability) was 474.054 and the HACAT_AUC [9, 18] was 479.748. For the same molecule, the HACAT_AUC ([9]; area under the dose-response curve, HACAT control cells, AUC<450 = reduced viability) was 454.884, the HEK293T_AUC [10, 18] was 456.066 and the HEK293T_AUC ([10]; area under the dose-response curve, HEK293T control cells, AUC<450 = reduced viability) was 472.387. The MKL1_AUC [11, 16] was 303.479, the MKL1_AUC ([11]; area under the dose-response curve, MKL-1 cells, AUC<450 = reduced viability) was 393.26 and the Control-VN-MCC [12, 19] was 11.6784. It also gave a VN-MCC_Avg_AUC ([12]; MIPE library, sheet S2E) of 459.691, an NIH3T3_AUC [13, 18] of 475.653 and an NIH3T3_AUC ([13]; area under the dose-response curve, NIH3T3 control cells, AUC<450 = reduced viability) of 480.677. It also gave an MCC13_AUC [14, 16] of 461.58, an MCC13_AUC ([14]; area under the dose-response curve, MCC13 cells, AUC<450 = reduced viability) of 485.077 and a Control-MCC [15, 20] of 96.952.

— article PMC11822212, “High-throughput screening identifies Aurora kinase B as a critical therapeutic target for Merkel cell carcinoma” (Nature Communications, 2025)
